In patent US20240391940A1, “FUSED RING-CONTAINING COMPOUND, APPLICATION THEREOF, AND COMPOSITION CONTAINING SAME” (GenEros Biopharma Ltd., priority 2020, published 2024):
Several values for one entry are separate records, joined by “and”; a condition that tells them apart may be missing. Equal values may be shown once. Read-outs that look alike come from different tables or passages of the source.

Assays:
[1] = system: collagen-induced arthritis (CIA) mouse model; settings: CIA mice; for clinical score: Tofacitinib 10 mg/kg p.o. BID from day 28; for clinical score / body weight: Mean ± SEM; for body weight: Tofacitinib 10 mg/kg
[2] = system: adjuvant arthritis (AIA) rat model; assay: Rat AIA (adjuvant arthritis) model; assay type: in vivo, Lewis rats; settings: AIA rats, 10 mg/kg daily from day 9, individual animals, 10 mg/kg; for Hind paw volume: in mL (unit assumed)
[3] = system: collagen-induced arthritis (CIA) mouse model; assay: Mouse CIA model, repeated for dose exploration (10, 30, 50 mg/kg); settings: for Significance of clinical score vs. Vehicle group (Two-way ANOVA): Tofacitinib BID; for Changes in body weight, Mean ± SEM / Clinical scores, Mean ± SEM / Clinical scores: significance vs. solvent control group, two-way ANOVA: G2 Tofacitinib 10 mg/kg
Excerpt: Testing was repeated for dose exploration
The above method was used.

C[C@@H]1CCN(C(=O)CC#N)C[C@@H]1N(C)c1ncnc2[nH]ccc12 [Tofacitinib, reference compound]
clinical score ([1]; day 21): 0.0 ± 0.00 | clinical score ([1]; day 25): 0.3 ± 0.16 | clinical score ([1]; day 28): 0.8 ± 0.31 | clinical score ([1]; day 29): 1.0 ± 0.42 | clinical score ([1]; day 32): 1.8 ± 0.49 | clinical score ([1]; day 34): 2.5 ± 0.65 | clinical score ([1]; day 36): 2.8 ± 0.75 | clinical score ([1]; day 39): 3.4 ± 0.80 | clinical score ([1]; day 41): 3.5 ± 0.87 | body weight ([1]; day 21): 20.39 ± 0.43 | body weight ([1]; day 25): 20.54 ± 0.45 | body weight ([1]; day 28): 20.63 ± 0.49 | body weight ([1]; day 29): 20.2 ± 0.44 | body weight ([1]; day 32): 19.91 ± 0.50 | body weight ([1]; day 34): 20.39 ± 0.44 | body weight ([1]; day 36): 20.26 ± 0.43 | body weight ([1]; day 39): 20.31 ± 0.34 | body weight ([1]; day 41): 21.04 ± 0.44 | Effect on symptoms of arthritis and lesions in tissues ([1]; positive control tofacitinib): significant improving effect on the symptoms of arthritis and lesions in tissues | Joint histopathology (H&E staining) ([1]; tofacitinib 10 mg/kg): no significant lesions in joint tissues | Day on which significant inhibition of the score of arthritis began ([1]; tofacitinib 10 mg/kg BID): 34 days | body weight ([2]; day 9): 167 g (2×) and 156 g and 146 g and 168 g and 151 g and 154 g and 161 g | clinical scores ([2]; day 9): 1 and 0 (7×) | Hind paw volume ([2]; day 9): 2.1 and 1.42 and 1.4 and 1.35 and 1.24 and 1.1 | body weight ([2]; day 10): 165 g and 153 g and 142 g and 168 g and 150 g and 152 g and 160 g and 166 g | body weight ([2]; day 11): 162 g and 154 g and 140 g and 166 g and 145 g and 151 g and 158 g and 167 g | clinical scores ([2]; day 11): 1.5 and 0.5 (4×) and 0 (2×) and 0.25 | Hind paw volume ([2]; day 11): 2 and 1.23 and 1.03 and 1.53 and 1.02 and 1.46 and 1.01 | body weight ([2]; day 12): 155 g (2×) and 149 g (2×) and 136 g and 159 g and 145 g and 168 g | body weight ([2]; day 13): 154 g (2×) and 148 g and 136 g and 157 g and 140 g and 167 g and 150 g | clinical scores ([2]; day 13): 3.3 and 1 (3×) and 1.5 and 0.5 and 1.2 and 0.7 | Hind paw volume ([2]; day 13): 2.59 and 1.92 and 1.72 and 1.16 and 1.39 and 1.11 and 1.83 and 1.47 | body weight ([2]; day 14): 151 g and 144 g and 135 g and 154 g and 140 g and 147 g and 153 g and 164 g | body weight ([2]; day 15): 150 g and 145 g and 134 g and 152 g and 139 g and 146 g and 151 g and 162 g | clinical scores ([2]; day 15): 3.5 and 3 and 2 (2×) and 1.5 and 2.5 and 0.8 and 0.7 | Hind paw volume ([2]; day 15): 2.54 and 2.22 and 1.31 and 1.33 and 1.65 and 2.45 and 1.18 | body weight ([2]; day 16): 153 g and 142 g and 136 g and 152 g and 141 g and 145 g and 147 g and 160 g | body weight ([2]; day 17): 156 g and 147 g and 138 g and 151 g and 142 g and 146 g (2×) and 163 g | clinical scores ([2]; day 17): 3 and 2 (2×) and 1.8 and 1.5 and 2.3 and 1.3 and 0.3 | Hind paw volume ([2]; day 17): 2.5 and 2.45 and 2.08 and 1.17 and 2.21 and 1.73 and 2.16 and 0.94 | body weight ([2]; day 18): 155 g and 148 g (3×) and 141 g and 151 g and 143 g and 164 g | body weight ([2]; day 19): 160 g and 151 g and 144 g and 159 g and 145 g and 153 g and 154 g and 166 g | clinical scores ([2]; day 19): 2.8 and 2 and 1.3 (2×) and 0.3 and 1.5 and 1 and 0 | Hind paw volume ([2]; day 19): 2.81 and 2.85 and 1.96 and 1.46 and 2.31 and 1.83 and 1.42 | body weight ([2]; day 20): 159 g and 150 g and 136 g and 160 g and 145 g and 152 g and 153 g and 165 g | body weight ([2]; day 21): 161 g and 150 g and 148 g and 162 g | clinical scores ([2]; day 21): 2 and 1.5 (2×) and 1.3 (2×) and 0 (2×) and 1 | Hind paw volume ([2]; day 21): 2.49 and 2.2 and 2.17 and 1.18 and 1.96 and 1.22 | clinical scores ([2]; day 23): 3 and 1 (4×) and 6 and 0.5 and 0 | Hind paw volume ([2]; day 23): 2.74 and 1.9 and 1.91 and 1.23 and 1.17 and 1.64 and 1.92 and 1.18 | Significance of clinical score vs. Vehicle group (Two-way ANOVA) ([3]; CIA mice, Day 35): ** (**P < 0.01) | Significance of clinical score vs. Vehicle group (Two-way ANOVA) ([3]; CIA mice, Day 38): *** (***P < 0.001) | Significance of clinical score vs. Vehicle group (Two-way ANOVA) ([3]; CIA mice, Day 40): **** (****P < 0.0001) | Significance of clinical score vs. Vehicle group (Two-way ANOVA) ([3]; CIA mice, Day 42): **** (****P < 0.0001) | Effect on symptoms of arthritis and lesions in tissues ([3]; CIA mice, positive control tofacitinib): significant improving effect on the symptoms of arthritis and lesions in tissues | Changes in body weight, Mean ± SEM ([3]; Day 21): 20.41 ± 0.27 | Clinical scores, Mean ± SEM ([3]; Day 21): 0.0 ± 0.00 | Changes in body weight, Mean ± SEM ([3]; Day 24): 19.69 ± 0.37 | Clinical scores, Mean ± SEM ([3]; Day 24): 0.0 ± 0.00 | Changes in body weight, Mean ± SEM ([3]; Day 26): 19.59 ± 0.36 | Clinical scores, Mean ± SEM ([3]; Day 26): 0.3 ± 0.16 | Changes in body weight, Mean ± SEM ([3]; Day 28): 19.25 ± 0.50 | Clinical scores, Mean ± SEM ([3]; Day 28): 0.6 ± 0.18 | Changes in body weight, Mean ± SEM ([3]; Day 31): 18.98 ± 0.53 | Clinical scores, Mean ± SEM ([3]; Day 31): 1.8 ± 0.37 | Changes in body weight, Mean ± SEM ([3]; Day 33): 19.14 ± 0.43 | Clinical scores, Mean ± SEM ([3]; Day 33): 3.1 ± 0.52 | Changes in body weight, Mean ± SEM ([3]; Day 35): 19.03 ± 0.46 | Clinical scores, Mean ± SEM ([3]; Day 35): 3.6 ± 0.56 | Clinical scores: significance vs. solvent control group, two-way ANOVA ([3]; Day 35): ** (** p < 0.01) | Changes in body weight, Mean ± SEM ([3]; Day 38): 18.98 ± 0.45 | Clinical scores, Mean ± SEM ([3]; Day 38): 4.6 ± 0.75 | Clinical scores: significance vs. solvent control group, two-way ANOVA ([3]; Day 38): *** (*** p < 0.001) | Changes in body weight, Mean ± SEM ([3]; Day 40): 19.56 ± 0.32 | Clinical scores, Mean ± SEM ([3]; Day 40): 5.1 ± 0.90 | Clinical scores: significance vs. solvent control group, two-way ANOVA ([3]; Day 40): **** (**** p <0.0001) | Changes in body weight, Mean ± SEM ([3]; Day 42): 19.69 ± 0.40 | Clinical scores, Mean ± SEM ([3]; Day 42): 5.5 ± 0.87 | Clinical scores: significance vs. solvent control group, two-way ANOVA ([3]; Day 42): **** (**** p <0.0001)
